ChEMBL document CHEMBL5034032, “Discovery and Structure-Based Optimization of Fragments Binding the Mixed Lineage Kinase Domain-like Protein Executioner Domain” (J Med Chem, 2021)
pKd: −log10 of the molar value.

Columns and labels:
[1] = molecular target: T1, Mixed lineage kinase domain-like protein (Homo sapiens, UniProt Q8NB16); test: Binding affinity to MLKL N-terminal executioner domain (2 to 154 residues)(unknown origin) assessed as dissociation constant by TROSY-HSQC NMR titration analysis
T1 sequence (Q8NB16 whole entry): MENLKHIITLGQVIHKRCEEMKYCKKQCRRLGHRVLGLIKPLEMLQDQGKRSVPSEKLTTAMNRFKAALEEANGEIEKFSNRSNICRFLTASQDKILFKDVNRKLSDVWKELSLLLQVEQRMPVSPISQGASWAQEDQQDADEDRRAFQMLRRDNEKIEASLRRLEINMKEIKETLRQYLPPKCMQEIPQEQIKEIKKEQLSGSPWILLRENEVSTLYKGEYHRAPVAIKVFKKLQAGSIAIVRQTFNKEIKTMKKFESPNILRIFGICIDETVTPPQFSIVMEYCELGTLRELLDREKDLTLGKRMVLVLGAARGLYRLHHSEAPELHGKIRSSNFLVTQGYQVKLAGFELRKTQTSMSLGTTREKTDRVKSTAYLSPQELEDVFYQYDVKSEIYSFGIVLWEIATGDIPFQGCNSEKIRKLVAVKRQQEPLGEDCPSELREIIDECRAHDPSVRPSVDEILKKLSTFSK

[2] = Permeability of compound by PAMPA assay; assay type: ADME; conditions: read-out: permeability

| pKd [1] | Papp [2] [×10⁻⁶ cm/s] | Compound |
| --- | --- | --- |
| 2.26 | – | CCCCCCCCCO[C@@H]1O[C@H](CO)[C@@H](O[C@H]2O[C@H](CO)[C@@H](O)[C@H](O)[C@H]2O)[C@H](O)[C@H]1O |
| – | 0.031 | CO[C@@H](c1ccc(C(C)C)cc1)c1nc2ccc(C(=O)O)cc2[nH]1 |
| 4.14 | – | COCCOCn1c(S(C)(=O)=O)nc2c1c(=O)n(C)c(=O)n2C |
